Reference: ChEMBL document CHEMBL1201861, “Genomics of Drug Sensitity in Cancer screening data, Wellcome Trust Sanger Institute”

Columns and labels:
Experiment in all cases: cells
MV4-11 = type: functional, cell-based, Homo sapiens, MV-4-11; settings: Homo sapiens, MV4-11;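 further: cell viability readout measuring growth inhibition of human MV-4-11 cells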
Description: SANGER: Inhibition of human MV-4-11 cell growth in a cell viability assay.

SNU-C2B = type: functional, cell-based; settings: Homo sapiens;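 further: cell viability readout used to measure compound-driven suppression of SNU-C2B cell proliferation, IC50 marking half-maximal growth inhibition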
Description: SANGER: Inhibition of human SNU-C2B cell growth in a cell viability assay.

NB13 = type: functional, cell-based, Homo sapiens; settings: Homo sapiens, NB13;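 further: cell viability readout measuring growth inhibition of human NB13 cells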
Description: SANGER: Inhibition of human NB13 cell growth in a cell viability assay.

EW-1 = type: functional, cell-based, Homo sapiens; settings: Homo sapiens, EW-1;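 further: growth inhibition of the human EW-1 cell line, read out by a cell viability assay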
Description: SANGER: Inhibition of human EW-1 cell growth in a cell viability assay.

HDLM-2 = type: functional, cell-based, Homo sapiens; settings: Homo sapiens, HDLM-2;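 further: cell viability assay measuring suppression of HDLM-2 proliferation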
Description: SANGER: Inhibition of human HDLM-2 cell growth in a cell viability assay.

SK-N-FI = type: functional, cell-based, Homo sapiens; settings: Homo sapiens, SK-N-FI;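 further: cell viability assay measuring growth inhibition of human SK-N-FI cells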
Description: SANGER: Inhibition of human SK-N-FI cell growth in a cell viability assay.

TE-10 = type: functional, cell-based, Homo sapiens; settings: Homo sapiens, TE-10;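 further: growth inhibition of TE-10 cells, measured by a cell viability assay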
Description: SANGER: Inhibition of human TE-10 cell growth in a cell viability assay.

ES3 = type: functional, cell-based, Homo sapiens; settings: Homo sapiens, ES3;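 further: growth inhibition of ES3 cells, read out with a cell viability assay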
Description: SANGER: Inhibition of human ES3 cell growth in a cell viability assay.

SW 954 = type: functional, cell-based, Homo sapiens; settings: Homo sapiens, SW 954;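 further: growth inhibition of SW954 human cancer cells, read out as cell viability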
Description: SANGER: Inhibition of human SW954 cell growth in a cell viability assay.

MZ2-MEL = type: functional, cell-based, Homo sapiens; settings: Homo sapiens, MZ2-MEL;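 further: growth inhibition of MZ2-MEL cells read out with a cell viability assay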
Description: SANGER: Inhibition of human MZ2-MEL cell growth in a cell viability assay.

NCI-H720 = type: functional, cell-based, Homo sapiens; settings: Homo sapiens, NCI-H720;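 further: growth inhibition of human NCI-H720 cells determined by a cell viability assay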
Description: SANGER: Inhibition of human NCI-H720 cell growth in a cell viability assay.

CGTH-W-1 = type: functional, cell-based, Homo sapiens; settings: Homo sapiens, CGTH-W-1;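 further: growth inhibition of human CGTH-W-1 cells measured by cell viability assay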
Description: SANGER: Inhibition of human CGTH-W-1 cell growth in a cell viability assay.

KP-N-YS = type: functional, cell-based, Homo sapiens; settings: Homo sapiens, KP-N-YS;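 further: cell viability assay measuring inhibition of cell line growth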
Description: SANGER: Inhibition of human KP-N-YS cell growth in a cell viability assay.

DOHH-2 = type: functional, cell-based, Homo sapiens; settings: Homo sapiens, DOHH-2;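 further: growth inhibition of human DOHH-2 cells, read out with a cell viability assay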
Description: SANGER: Inhibition of human DOHH-2 cell growth in a cell viability assay.

HCE-4 = type: functional, cell-based; settings: Homo sapiens;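 further: cell viability assay measuring inhibition of growth in the human HCE-4 cell line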
Description: SANGER: Inhibition of human HCE-4 cell growth in a cell viability assay.

BB30-HNC = type: functional, cell-based, Homo sapiens; settings: Homo sapiens, BB30-HNC;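 further: growth inhibition of the cultured cell line, read out by a cell viability assay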
Description: SANGER: Inhibition of human BB30-HNC cell growth in a cell viability assay.

NCI-H82 = type: functional, cell-based, Homo sapiens; settings: Homo sapiens, NCI-H82;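 further: growth inhibition of NCI-H82 cells, measured with a cell viability readout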
Description: SANGER: Inhibition of human NCI-H82 cell growth in a cell viability assay.

BB65-RCC = type: functional, cell-based, Homo sapiens; settings: Homo sapiens, BB65-RCC;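 further: growth inhibition of the cell line, measured with a cell viability assay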
Description: SANGER: Inhibition of human BB65-RCC cell growth in a cell viability assay.

SJSA-1 = type: functional, cell-based, Homo sapiens; settings: Homo sapiens, SJSA-1;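 further: growth inhibition of human SJSA-1 cells, read out through a cell viability measurement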
Description: SANGER: Inhibition of human SJSA-1 cell growth in a cell viability assay.

DU-4475 = type: functional, cell-based, Homo sapiens; settings: Homo sapiens, DU-4475
Description: SANGER: Inhibition of human DU-4475 cell growth in a cell viability assay.

C2BBe1 = type: functional, cell-based, Homo sapiens; settings: Homo sapiens, C2BBe1;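 further: growth inhibition of C2BBe1 cells, read out through a viability assay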
Description: SANGER: Inhibition of human C2BBe1 cell growth in a cell viability assay.

A498 = type: functional, cell-based, Homo sapiens; settings: Homo sapiens, A498;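 further: growth inhibition of human A498 cells, read out with a cell viability assay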
Description: SANGER: Inhibition of human A498 cell growth in a cell viability assay.

CW-2 = type: functional, cell-based, Homo sapiens; settings: Homo sapiens, CW-2;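 further: growth inhibition of CW-2 cells, read out by a cell viability assay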
Description: SANGER: Inhibition of human CW-2 cell growth in a cell viability assay.

L-428 = type: functional, cell-based, Homo sapiens; settings: Homo sapiens, L-428
Description: SANGER: Inhibition of human L-428 cell growth in a cell viability assay.

NB69 = type: functional, cell-based, Homo sapiens; settings: Homo sapiens, NB69;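 further: growth inhibition of NB69 cells, determined by a cell viability assay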
Description: SANGER: Inhibition of human NB69 cell growth in a cell viability assay.

SK-NEP-1 = type: functional, cell-based, Homo sapiens; settings: Homo sapiens, SK-NEP-1;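 further: growth inhibition of human SK-NEP-1 cells, read out by a cell viability assay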
Description: SANGER: Inhibition of human SK-NEP-1 cell growth in a cell viability assay.

MSTO-211H = type: functional, cell-based, Homo sapiens; settings: Homo sapiens, MSTO-211H
Description: SANGER: Inhibition of human MSTO-211H cell growth in a cell viability assay.

MC116 = type: functional, cell-based, Homo sapiens; settings: Homo sapiens, MC116;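 further: growth inhibition of MC116 cells, read out with a cell viability assay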
Description: SANGER: Inhibition of human MC116 cell growth in a cell viability assay.

K5 = type: functional, cell-based, Homo sapiens; settings: Homo sapiens, K5
Description: SANGER: Inhibition of human K5 cell growth in a cell viability assay.

TGBC24TKB = type: functional, cell-based; settings: Homo sapiens;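 further: growth inhibition of human TGBC24TKB cells, read out with a cell viability assay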
Description: SANGER: Inhibition of human TGBC24TKB cell growth in a cell viability assay.

NCI-H1155 = type: functional, cell-based, Homo sapiens; settings: Homo sapiens, NCI-H1155;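 further: cell growth inhibition measured by a viability assay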
Description: SANGER: Inhibition of human NCI-H1155 cell growth in a cell viability assay.

JAR = type: functional, cell-based, Homo sapiens; settings: Homo sapiens, JAR;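 further: growth inhibition of human JAR cells determined with a cell viability assay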
Description: SANGER: Inhibition of human JAR cell growth in a cell viability assay.

HCC2218 = type: functional, cell-based, Homo sapiens; settings: Homo sapiens, HCC2218;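 further: cell viability assay read-out, with IC50 given as the concentration that inhibits growth of the cell line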
Description: SANGER: Inhibition of human HCC2218 cell growth in a cell viability assay.

SW982 = type: functional, cell-based; settings: Homo sapiens;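 further: growth inhibition of SW982 cells, read out with a cell viability assay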
Description: SANGER: Inhibition of human SW982 cell growth in a cell viability assay.

IST-MES1 = type: functional, cell-based, Homo sapiens; settings: Homo sapiens, IST-MES1;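 further: growth inhibition of IST-MES1 cells, measured with a cell viability assay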
Description: SANGER: Inhibition of human IST-MES1 cell growth in a cell viability assay.

DMS-114 = type: functional, cell-based, Homo sapiens; settings: Homo sapiens, DMS-114
NCI-N87 = type: functional, cell-based; settings: Homo sapiens;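 further: growth inhibition of human NCI-N87 cells, read out with a cell viability assay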
Description: SANGER: Inhibition of human NCI-N87 cell growth in a cell viability assay.

NCI-H209 = type: functional, cell-based, Homo sapiens; settings: Homo sapiens, NCI-H209;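 further: growth inhibition of human NCI-H209 cells, measured by a cell viability assay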
Description: SANGER: Inhibition of human NCI-H209 cell growth in a cell viability assay.

NB6 = type: functional, cell-based, Homo sapiens; settings: Homo sapiens, NB6
Description: SANGER: Inhibition of human NB6 cell growth in a cell viability assay.

EW-3 = type: functional, cell-based, Homo sapiens; settings: Homo sapiens, EW-3;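 further: cell viability assay read-out, IC50 reflects inhibition of growth of the EW-3 cells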
Description: SANGER: Inhibition of human EW-3 cell growth in a cell viability assay.

A388 = type: functional, cell-based; settings: Homo sapiens;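 further: growth inhibition of human A388 cells, read out with a cell viability assay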
Description: SANGER: Inhibition of human A388 cell growth in a cell viability assay.

SNU-5 = type: functional, cell-based, Homo sapiens; settings: Homo sapiens, SNU-5;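 further: cell viability readout used to measure growth inhibition in human NCI-SNU-5 cells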
Description: SANGER: Inhibition of human NCI-SNU-5 cell growth in a cell viability assay.

NCI-H1355 = type: functional, cell-based, Homo sapiens; settings: Homo sapiens, NCI-H1355;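 further: growth inhibition of human NCI-H1355 cells, read out by a cell viability assay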
Description: SANGER: Inhibition of human NCI-H1355 cell growth in a cell viability assay.

KNS-42 = type: functional, cell-based; settings: Homo sapiens;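 further: growth inhibition of KNS-42 cells, read out with a cell viability assay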
Description: SANGER: Inhibition of human KNS-42 cell growth in a cell viability assay.

EM-2 = type: functional, cell-based, Homo sapiens; settings: Homo sapiens, EM-2;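 further: growth inhibition of EM-2 cells, read out with a cell viability assay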
Description: SANGER: Inhibition of human EM-2 cell growth in a cell viability assay.

BE-13 = type: functional, cell-based, Homo sapiens; settings: Homo sapiens, BE-13;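 further: growth inhibition of human BE-13 cells, measured with a cell viability assay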
Description: SANGER: Inhibition of human BE-13 cell growth in a cell viability assay.

UACC-257 = type: functional, cell-based, Homo sapiens; settings: Homo sapiens, UACC-257
Description: SANGER: Inhibition of human UACC-257 cell growth in a cell viability assay.

NEC8 = type: functional, cell-based, Homo sapiens; settings: Homo sapiens, NEC8;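 further: growth inhibition of human NEC8 cells, read out by a cell viability assay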
Description: SANGER: Inhibition of human NEC8 cell growth in a cell viability assay.

GCIY = type: functional, cell-based, Homo sapiens; settings: Homo sapiens, GCIY;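 further: growth inhibition of the human GCIY cell line, read out by a cell viability assay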
Description: SANGER: Inhibition of human GCIY cell growth in a cell viability assay.

U-87 MG = type: functional, cell-based, Homo sapiens, U-87MG ATCC; settings: Homo sapiens, U-87 MG;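 further: growth inhibition of the cells measured with a viability assay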
Description: SANGER: Inhibition of human U-87-MG cell growth in a cell viability assay.

A253 cell line = type: functional, cell-based, Homo sapiens; settings: Homo sapiens, A253;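 further: growth inhibition of A253 cells, read out with a cell viability assay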
Description: SANGER: Inhibition of human A253 cell growth in a cell viability assay.

CN(NC(=O)CC(=O)NN(C)C(=S)c1ccccc1)C(=S)c1ccccc1 [ELESCLOMOL]
IC50 (MV4-11): 18 nM | IC50 (SNU-C2B): > 200 nM | IC50 (NB13): 23.1 nM | IC50 (EW-1): 5.24 nM | IC50 (HDLM-2): > 200 nM | IC50 (SK-N-FI): 81.5 nM | IC50 (TE-10): > 200 nM | IC50 (ES3): 5.79 nM | IC50 (SW 954): 14.2 nM | IC50 (MZ2-MEL): > 200 nM | IC50 (NCI-H720): 124 nM | IC50 (CGTH-W-1): 11 nM | IC50 (KP-N-YS): 79.9 nM | IC50 (DOHH-2): > 200 nM | IC50 (HCE-4): 59.1 nM | IC50 (BB30-HNC): 35.3 nM | IC50 (NCI-H82): > 200 nM | IC50 (BB65-RCC): 24.2 nM | IC50 (SJSA-1): 12.3 nM | IC50 (DU-4475): 112 nM | IC50 (C2BBe1): 103 nM | IC50 (A498): 46.5 nM | IC50 (CW-2): > 200 nM | IC50 (L-428): > 200 nM | IC50 (NB69): 1.22 nM | IC50 (SK-NEP-1): 76.1 nM | IC50 (MSTO-211H): > 200 nM | IC50 (MC116): > 200 nM | IC50 (K5): 7 nM | IC50 (TGBC24TKB): 12.9 nM | IC50 (NCI-H1155): 46.2 nM | IC50 (JAR): 5.97 nM | IC50 (HCC2218): > 200 nM | IC50 (SW982): 7.44 nM | IC50 (IST-MES1): 54.1 nM | IC50 (DMS-114): 9.43 nM | IC50 (NCI-N87): > 200 nM | IC50 (NCI-H209): > 200 nM | IC50 (NB6): 142 nM | IC50 (EW-3): 39.9 nM | IC50 (A388): > 200 nM | IC50 (SNU-5): > 200 nM | IC50 (NCI-H1355): 8.89 nM | IC50 (KNS-42): > 200 nM | IC50 (EM-2): > 200 nM | IC50 (BE-13): > 200 nM | IC50 (UACC-257): 22 nM | IC50 (NEC8): 11.5 nM | IC50 (GCIY): > 200 nM | IC50 (U-87 MG): > 200 nM

CC(C)C[C@H](NC(=O)[C@H](Cc1ccccc1)NC(=O)c1cnccn1)B(O)O [BORTEZOMIB]
IC50 (MV4-11): 1.82 nM | IC50 (NB13): 2 nM | IC50 (EW-1): 5.31 nM | IC50 (HDLM-2): > 20 nM | IC50 (SK-N-FI): > 20 nM | IC50 (TE-10): 1.03 nM | IC50 (ES3): > 20 nM | IC50 (SW 954): 2.9 nM | IC50 (MZ2-MEL): 0.407 nM | IC50 (NCI-H720): > 20 nM | IC50 (CGTH-W-1): 3.1 nM | IC50 (KP-N-YS): > 20 nM | IC50 (DOHH-2): > 20 nM | IC50 (BB30-HNC): 0.335 nM | IC50 (NCI-H82): > 20 nM | IC50 (BB65-RCC): 0.304 nM | IC50 (SJSA-1): 2.21 nM | IC50 (DU-4475): 1.36 nM | IC50 (C2BBe1): 2.89 nM | IC50 (CW-2): 3.21 nM | IC50 (L-428): > 20 nM | IC50 (A253 cell line): 0.208 nM | IC50 (NB69): 2.46 nM | IC50 (SK-NEP-1): 9.01 nM | IC50 (MSTO-211H): > 20 nM | IC50 (MC116): > 20 nM | IC50 (K5): 1.28 nM | IC50 (NCI-H1155): > 20 nM | IC50 (JAR): 16.1 nM | IC50 (HCC2218): 19.5 nM | IC50 (IST-MES1): > 20 nM | IC50 (DMS-114): 9.62 nM | IC50 (NCI-N87): > 20 nM | IC50 (NCI-H209): > 20 nM | IC50 (NB6): 8.48 nM | IC50 (EW-3): > 20 nM | IC50 (A388): 0.356 nM | IC50 (SNU-5): 5.17 nM | IC50 (NCI-H1355): 0.895 nM | IC50 (KNS-42): 0.258 nM | IC50 (EM-2): 1.16 nM | IC50 (BE-13): 1.93 nM | IC50 (UACC-257): 0.71 nM | IC50 (NEC8): 3.35 nM | IC50 (GCIY): 1.62 nM | IC50 (U-87 MG): 16.8 nM
